The test system of data set [1] is TNFα-induced apoptosis, WEHI-13VAR cells. The experiment in a line: TNFα induced apoptosis in WEHI-13VAR cells (MTT). Type of data set: cell-based, murine. The note with it: Mus musculus; for inhibition at 10 µM: 1 × 10^−5M; for inhibition at 20 µM: 2 × 10^−5M; for inhibition at 40 µM: 4 × 10^−5M; for inhibition at 5 µM: 5 × 10^−6M. The method, then:
Effect of compounds on TNFα-induced apoptosis was measured by a standard biological assay using WEHI-13VAR cells. These cells undergo apoptosis when they are incubated in the presence of TNFα and actinomycin D. 2×10^4 WEHI-13VAR cells were incubated in RPMI supplemented with 1% sodium pyruvate and 10% FBS, overnight at 37° C. for cell adherence. The cells were then cultured in the presence of 1 μg/mL of actinomycin D (to inhibit protein synthesis) and 0.04 nM TNFα with or without compounds at 37° C. After 16-24 h, 50 μL of a solution of 2 mg/mL of MTT was added to each well and the plate was then incubated for 4 h at 37° C. Only viable cells metabolize MTT to form formazan salt, which is detectable by the measurement of absorbance at 570 nm. After the incubation, the plate was inverted to remove medium and dead cells. 150 μL DMSO was added to each well to stop the reaction and solubilize the formazan salt. Optical density was read on a EL 800, universal Microplate reader (Bio-Tek). A decrease in the optical density is direct evidence of cell apoptosis induced by TNFα. Compounds were also compared to the activity of an anti-TNFα neutralizing antibody.

The test system of data set [2] is TNFα production, J774A-1 cells. The experiment in a line: LPS-induced TNFα production in J774A-1 cells (ELISA). It is filed as cell-based. The following applies: Mus musculus, J774.A1, 24 h, read-out: IC50 (μM), inhibition of TNFα released by LPS induction. Here is the method:
Effect of compounds on TNFα production was measured by ELISA using J774-1 cells stimulated by LPS. J774-1 cells were cultured in the presence or absence of LPS and compound. Cells were cultured at 37° C. for 24 h and thereafter the supernatants were collected for the determination of the concentration of TNFα by ELISA as recommended by the manufacturer (BD Biosciences). Data was analyzed in Microsoft Excel and the concentration of compound which inhibits 50% of TNFα production (IC50) was calculated using Prism software.
(In general: In an ELISA, binding on a coated surface is turned into a signal by an enzyme label.)

Data set [3] deals with T1, Fc portion of human IgG (binding of protein A to human IgG).
T1 construct: fused on or other part: Horseradish peroxidase chemically conjugated to the IgG (HRP-IgG)
The data set can be described thus: Competitive protein A binding ELISA. The method, then: As described above, this assay evaluates the ability of the exemplified compounds to mimic protein A. Such compounds can bind to the Fc portion of human IgG as ascertained by the inhibition of binding of protein A to human IgG. The competitive protein A binding ELISA assay was performed on a 96-well plate Maxisorp surface to enhance the binding of protein A to the bottom of the plate. The wells were coated with 100 μL of protein A (0.8 μg) and incubated overnight at 4° C. After incubation, unbound protein A was removed by three washes with phosphate buffer saline (PBS). The plate was then incubated with 100 μL/well of a 2% solution of bovine serum albumin (BSA) for 1 h at 37° C. to block non specific protein binding. After incubation, the plate was washed to times with PBS. 50 μL of compound or protein A, diluted in PBS or PBS-20% DMSO at appropriate concentration, were added to the wells followed by addition of 50 μL of peroxidase-conjugated human IgG (HRP-IgG). After 1 h incubation at 37° C., the plate was washed free times with PBS to remove unbound HRP-IgG. Bound HRP-IgG was detected by incubation with 100 μL of 2,2′-Azino-di[3-ethylbenzothiazoline sulfonate]diammonium salt crystals (ABTS) solution for 20 min in the dark at room temperature. The plate was then read at 405 nm on a EL 800, universal Microplate reader (Bio-Tek). Data was analyzed in Microsoft Excel and the concentration of compound which inhibits 50% binding of protein A (IC50) was calculated using Prism software.
Table 1 represents the IC50 of compounds tested in the competitive protein A binding ELISA assay, which consists of a side-by-side analysis in PBS and PBS-20% DMSO. DMSO was used to increase the solubility of some of the compounds.

Data set [4] deals with TNFα / p55 TNFα receptor (CD120a) (Homo sapiens, UniProt P01375). The experiment in a line: Binding ELISA: TNF-α binding to plastic coated TNF-R1. The following applies: for inhibition at 100 µM: 10^−4 M; for inhibition at 10 µM: 10^−5 M. The method, then: (§1) Compounds were tested for their ability to bind to TNFα or inhibit the interaction of TNFα with its respective receptors; p55 and p75 TNFα receptor. Three binding ELISA assays were undertaken as described by Mancini et al. Biochemical Pharmacology 58, 851-859 (1999). TNFα or receptor (1 μg/mL) was coated on a 96-well plate Maxisorp, overnight at 4° C. After incubation, unbound TNFα or p55 TNFα receptor or p75 TNFα receptor was removed and the plate washed three times with PBS. The plate was then incubated with 100 μL/well of a 2% BSA solution for 1 h at 37° C. to block non specific protein binding. After incubation, the plate was washed three times with PBS. Biotinylated recombinant human TNFα p55 or p75 receptor or biotinylated recombinant human TNFα was added to the wells in the presence or absence of compounds. The plate was incubated for 1 h at 37° C. After incubation, the plate was washed three times with PBS to remove unbound labeled p55 or p75 receptor or recombinant human TNFα. 100 μL of avidin-HRP (diluted 1/2000 in PBS-0.1% BSA) was added to each well and incubated 1 h at 37° C. Bound p55 or p75 receptor or recombinant human TNFα was detected by the addition of 200 μL of 3,3′,5,5′-tetramethylbenzidine (TMB) per well for 15 min. The plate was then read at 655 nm on a EL 800 universal Microplate reader (Bio-Tek, Mississauga, Canada). Data was analyzed in Microsoft Excel and recorded as the percentage of inhibition of p55 or p75 binding to TNFα or TNFα binding to RI (p55) or RII (p75).
Chain of TNFα / p55 TNFα receptor (CD120a) (P01375 77-233 limits assumed): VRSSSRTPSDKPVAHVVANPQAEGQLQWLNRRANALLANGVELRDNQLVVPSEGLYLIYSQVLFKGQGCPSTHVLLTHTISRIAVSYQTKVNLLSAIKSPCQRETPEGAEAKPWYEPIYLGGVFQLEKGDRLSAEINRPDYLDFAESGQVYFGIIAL

Data set [5] addresses TNFα / p75 TNFα receptor (CD120b) (Homo sapiens, UniProt P01375). The experiment in a line: Binding ELISA: TNF-α binding to plastic coated TNF-R2. The note with it: for inhibition at 100 µM: 10^−4 M; for inhibition at 10 µM: 10^−5 M. The method, then: as §1
Data set [6] is described as follows: PBML cytotoxicity (MTT). Type of data set: cell-based. The note with it: human. The source says: (§2) PBML were obtained from the peripheral blood of healthy volunteers. Blood was submitted to gradient centrifugation with Lympholyte-poly (Cedarlane, Hornby, Canada). The layer, which contains the mononuclear leukocytes, was collected and the cells washed three times in PBS. Cells were then suspended in RPMI (Gibco, Burlington, Canada) supplemented with […] (cyclone, Logan USA). Viability was greater than 99% as determined by trypan blue exclusion.
(§3) PBML were resuspended at 2×10^6 cells mL. 100 μL of PBML (2×10^5 cells) were incubated in a 96-well microtiter plate for 48 h in the presence or absence of compound or protein A. Cells were quiescent or stimulated with concanavalin A (ConA; T-cells) or pokeweed mitogen (PWM; B-cells). After incubation, cells were treated with MTT (cytotoxicity) or pulsed with 1 μCi of [^3]-thymidine (DNA synthesis), [^3H]-uridine (RNA synthesis) or [^3]-leucine (protein synthesis) for 6 h. Plates were harvested on a Tomteck and counted on a Microbeta β-counter.

The subject of data set [7] is peripheral blood mononuclear leukocytes (PBML). The experiment in a line: PBML DNA synthesis (thymidine). It is filed as cell-based, human. The note with it: for IC50: Homo sapiens, Leukocyte.
From the text: as §2, §3

Data set [8] shares this test system. The data set can be described thus: PBML RNA synthesis (uridine). It is filed as cell-based, human. The note with it: for IC50: Homo sapiens, Leukocyte.
From the text: as §2, §3

For data set [9] the test system is unchanged. The experiment in a line: PBML protein synthesis (leucine). The following applies: Homo sapiens, Leukocyte. It is filed as cell-based, human.
From the text: as §2, §3

Where [10] appears, read: Table 1, PBS-20% DMSO, read-out: IC50 (μM): Assay in PBS-20% DMSO.
[11] abbreviates: Table 1, PBS, read-out: IC50 (μM): Assay in PBS.
Where [12] appears, read: resting and stimulated (ConA and PWM) PBML.

The structures appear in SMILES notation. Where two headings read alike, the source gives them in different places.

Chain of TNFα / p75 TNFα receptor (CD120b) (P01375 77-233 limits assumed): as above

Broadly, the inhibition is the drop in the measured response relative to a control, in per cent. In general, IC50 refers to the point on the concentration scale where inhibition reaches its midpoint. In the case of `COC(=O)c1ccccc1Nc1nc(NCCNc2nc(N)nc(NCCc3ccc(O)cc3)n2)nc(NCCc2ccc(O)cc2)n1` [Compound 3], in data set [1], the inhibition at 10 µM was 32.7%, the inhibition at 20 µM came out at 44.6%, the inhibition at 40 µM came out at 33.9% and the inhibition at 5 µM came to 0.5%. The IC50 in data set [2] is 28 µM.
Regarding `Nc1ccc(CCNc2nc(NCCNc3nc(NCCc4ccc(N)cc4)nc(Nc4cccc(N)c4)n3)nc(Nc3cccc(N)c3)n2)cc1` [Compound 7], the half-inhibitory concentration (IC50) in data set [3] (setting [10]) was found to be 0.02 µM; in data set [3] (setting [11]), 0.2 µM; in data set [3] (Table 2, PBS-20% DMSO, n = 5 or 6, read-out: IC50 (n = 5 or 6) PBS-20% DMSO), 0.0217 µM; in data set [3] (Table 2, PBS, n = 5 or 6, read-out: IC50 (n = 5 or 6) PBS), 0.187 µM; in data set [7] (ConA stimulated PBML), 3.52 µM; in data set [7] (PWM stimulated PBML), 1.28 µM. For the same compound, the IC50 in [7] (Resting PBML) was 3.6 µM; in data set [8] (ConA stimulated PBML), 1.5 µM; in data set [8] (PWM stimulated PBML), 1.78 µM; in data set [8] (Resting PBML), 1.12 µM; in [9] (ConA stimulated PBML), greater than 10 µM; in [9] (PWM stimulated PBML), greater than 10 µM. Further, the IC50 in [9] (Resting PBML) is greater than 10 µM. Moreover, the inhibition at 100 µM in [4] is 32.6%; in data set [5], 36.9%. The inhibition at 10 µM in [4] came out at 10.4%; in [5], 43.3%. Also, the concentration for half-maximal inhibition (IC50) at 48 h in data set [6] (ConA stimulated PBML), in data set [6] (PWM stimulated PBML) and in data set [6] (Resting PBML) was greater than 10 µM in each case. For the same compound, the “effect on DNA synthesis (in words)” value in data set [7] (setting [12]) is on record as “suppress”. For the same compound, in data set [8] (setting [12]), the “effect on RNA synthesis (in words)” value is “suppress”.
In the case of `Oc1ccc(CCNc2nc(NCCNc3nc(NCCc4ccc(O)cc4)nc(Sc4ccccc4)n3)nc(Sc3ccccc3)n2)cc1` [Compound 11b], the IC50 turned out to be 45 µM in [3] (setting [10]) and 23.3 µM in [2].
As to `CN(C)CCCC(=O)Oc1ccc(CCNc2nc(NCCNc3nc(NCCc4ccc(OC(=O)CCCN(C)C)cc4)nc(Nc4ccccc4)n3)nc(Nc3ccccc3)n2)cc1` [Compound 12], the IC50 in [3] (setting [10]) worked out at 39 µM; in data set [3] (setting [11]), 23 µM; in [2], 3.4 µM. Besides, the inhibition at 10 µM was -21.1% in data set [1], -35.7% in [4] and -30.4% in [5]. The inhibition at 20 µM in [1] is -28.4%. Moreover, the inhibition at 40 µM in [1] is -30%. In addition, in [1], the inhibition at 5 µM came out at 36.9%. Further, the inhibition at 100 µM in data set [4] was -8.4%; in data set [5] it was 3.8%.
With `NCCNc1nc(NCCc2ccc(Oc3nc(NCCc4ccc(O)cc4)nc(Nc4ccccc4)n3)cc2)nc(Nc2ccccc2)n1` [Compound 13], the IC50 in data set [3] (setting [10]) turned out to be 70 µM; in data set [3] (setting [11]) it was 33 µM; in data set [2] it was 13.4 µM.
On to `CC(=O)NCCNc1nc(NCCc2ccc(Nc3nc(NCCc4ccc(O)cc4)nc(Nc4ccccc4)n3)cc2)nc(Nc2ccccc2)n1` [Compound 15], for which the IC50 is 35 µM in data set [3] (setting [10]) and 14.2 µM in data set [2].
Turning to `NCCCCNc1nc(NCCc2ccc(Nc3nc(NCCc4ccc(O)cc4)nc(Nc4ccccc4)n3)cc2)nc(Nc2ccccc2)n1` [Compound 16], the IC50 in data set [3] (setting [10]) was found to be 55 µM; in [3] (setting [11]), 36 µM; in data set [2], 13.6 µM.
For `Nc1ccc(CCNc2nc(Nc3ccccc3)nc(Nc3ccc(CCNc4nc(NCCO)nc(Nc5ccccc5)n4)cc3)n2)cc1` [Compound 17], in that order: 12 µM, 53 µM and 57.1 µM.
In the same order, the values of `Oc1ccc(CCNc2nc(NCCc3ccc(Nc4nc(Nc5ccccc5)nc(N5CCNCC5)n4)cc3)nc(Nc3ccccc3)n2)cc1` [Compound 18] are 43 µM, 26 µM and 10.2 µM.
For the compound `Oc1ccc(CCNc2nc(Nc3ccccc3)nc(Nc3ccc(Nc4nc(NCCc5ccc(O)cc5)nc(Nc5ccccc5)n4)cc3)n2)cc1` [Compound 28], the IC50 came to 35 µM in data set [3] (setting [10]) and 28.8 µM in data set [2].
On to `Nc1ccc(CCNc2nc(Nc3ccccc3)nc(N3CCN(c4nc(NCCO)nc(Nc5ccccc5)n4)CC3)n2)cc1` [Compound 33], for which the concentration for half-maximal inhibition (IC50) in [3] (setting [10]) is 18 µM; in [3] (setting [11]) it was 18 µM; in data set [2] it was 20.6 µM.
In the case of `NCCNc1nc(NCc2cccc(CNc3nc(NCCc4ccc(O)cc4)nc(Nc4ccccc4)n3)c2)nc(Nc2ccccc2)n1` [Compound 40], the IC50 in data set [2] worked out at 87.2 µM.

Source of the values: patent US7683061B2, “Triazine dimers for the treatment of autoimmune diseases” (ProMetic BioSciences Inc., priority 2003, dated 2010).
